Results published in the METLIN SMRT retention time set (Domingo-Almenara et al. 2019).

Assay: gradient 5% acetonitrile 3 min, to 50% in 2 min, to 85% in 15 min, held 3 min, 100 µL/min
Settings: column: Zorbax Extend-C18 2.1 x 50 mm; eluents: water / acetonitrile, 0.1% formic acid
Method in brief: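 The system's dead and dwell volumes were 40 μL and 900 μL, with a Zorbax Extend-C18 column (2.1 × 50 mm, 1.8 μm) run at 100 μL/min in water and acetonitrile containing 0.1% formic acid each. Pure standards were analyzed in mixtures of ~100 molecules by HPLC–quadrupole time-of-flight mass spectrometry in positive and negative ionization mode. Retention time was assigned from computationally picked, manually inspected adduct peaks.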

Row | Structure (SMILES) | RP-LC retention time [s]
1 | N#Cc1ccc(-c2csc(NC(=O)c3sc4ccccc4c3Cl)n2)cc1 | 1240
2 | Cc1cc(C)n(CCNC(=O)c2cnccn2)n1 | 566
3 | COc1ccccc1CNc1ncnc(N)c1[N+](=O)[O-] | 735
4 | O=S(=O)(c1ccc2c(c1)-c1oncc1CO2)N1CCC2(CC1)OCCO2 | 827
5 | CCC(=O)N1CCOc2ccc(N3CCOCC3)cc2C1 | 630
6 | O=C(Nc1ccc(C(F)(F)F)cc1)Nc1cccc(-c2nccnc2N2CCOCC2)c1 | 956
7 | C=CCn1c(SCCC(=O)O)nnc1-c1cccs1 | 616
8 | CCCS(=O)(=O)N1CCC(Cc2nc(-c3cccnc3)n[nH]2)C1 (stereo unspecified) | 583
9 | CSc1ccc(CNC(=O)C2CCCN(c3ccnc(-c4ccc(F)cc4)n3)C2)cc1 (stereo unspecified) | 728
10 | CCNc1cc(N2CCC(CCC(=O)NCc3nc4ccccc4n3C)CC2)ncn1 | 554
11 | COc1nn(C)cc1C(=O)Nc1nnc(-c2cc(C)oc2C)o1 | 666
12 | COCCNC(=O)C1COC2(CCCCC2)N1C(=O)c1cccc(C(F)(F)F)c1 (stereo unspecified) | 814
13 | O=C(Cc1csc(NC(=O)c2ccc[nH]c2=O)n1)NCc1cccs1 | 626
14 | CCCc1c(C(=O)O)nnn1-c1cccc(Cl)c1 | 783
15 | O=C(Nc1nnc(-c2cc(Cl)sc2Cl)o1)c1cccc(C(F)(F)F)c1 | 1010
16 | COc1cc(-c2nc3ncccn3c2Nc2cc(C)ccc2C)ccc1O | 672
17 | Cc1nnc(-c2ccc3ccn(CC(=O)NCc4cccs4)c3c2)o1 | 729
18 | CC(C)c1ncc(CO)n1Cc1c(Cl)cccc1Cl | 663
19 | CCC(CC)C(c1ccc(Nc2nc3ccccc3s2)cc1)n1cncn1 (stereo unspecified) | 1150
20 | Cc1ccc(CNC(=O)c2cc(-c3ccncc3)cn2Cc2ccccc2C)o1 | 749
21 | CC1(C)CC(=O)c2c(O)cc(OCC(=O)O)cc2O1 | 738
22 | COc1ccc(NCc2nnc3n2CCCCC3)cc1OC | 559
23 | CCc1cc2c(N3CCCC(C(=O)N(C)C)C3)nccc2s1 (stereo unspecified) | 640
24 | CCCN(Cc1ccc(Cl)cc1)Cc1cc(=O)n2ccc(C)cc2n1 | 669
25 | O=C(Nc1cccnc1)N1CCC(Cc2cccc(Oc3ccc(C(F)(F)F)cn3)c2)CC1 | 866
26 | O=C(N1CCCC(c2nnnn2-c2ccccc2)C1)C1(c2ccccc2)CC1 (stereo unspecified) | 839
27 | Cn1nc(-c2nnc(-c3ccc(F)cc3)o2)c2c1CCN(S(=O)(=O)c1cccc(C#N)c1)C2 | 891
28 | CCCn1cc(CCNS(=O)(=O)c2ccc(Cl)s2)c2cccnc21 | 899

Row | Structure (SMILES) | RP-LC retention time [s]
29 | O=C1CC(c2ccco2)Sc2nc3ccccc3n21 (stereo unspecified) | 796
30 | CC1=NS(=O)(=O)N(C)C=C1C(=O)OCc1nc(-c2cccc(C)c2)no1 | 1020
31 | CCc1cccc(NC(=O)N2[C@H]3CC[C@@H]2c2cncnc2C3)c1 | 741
32 | Cc1cc(N2CCCC2)n2nc(CN3CCN(c4ccccc4F)CC3)nc2n1 | 622
33 | COCCN1CCC(CNS(=O)(=O)c2ccc(F)cc2C)CC1 | 566
34 | O=C(NCC1CCOCC1)Nc1ccc(Cl)cc1F | 764
35 | CCOCCCNC(=O)Cn1c(-c2cccs2)cc2cc(F)ccc21 | 946
36 | Cc1ccccc1-c1nnc(CSc2nnc(NC(=O)c3ccccc3C(F)(F)F)s2)o1 | 972
37 | CCN1CCN(c2cc(C)c3cc(NC(=S)NCc4ccccc4OC)ccc3n2)CC1 | 605
38 | O=C(O)C1=CCCN(CCON=C(c2ccccc2)c2ccccc2)C1 | 766
39 | Cc1c(C(=O)NC2CCCCC2)sc2ncn(CC(=O)N3CC(C)CC(C)C3)c(=O)c12 (stereo unspecified) | 965
40 | CCC(CC)C(=O)Nc1nc(-c2ccc(Cl)cc2)cs1 | 1150
41 | CN(C)S(=O)(=O)N1CCC(F)(c2nc(-c3ccccc3)no2)CC1 | 1030
42 | COc1ccc(Cn2nnc3cc(C(=O)NCc4ccco4)ccc32)cc1 | 818
43 | Cc1nn(C)c2nc(OC(C)C(=O)NCc3ccc(F)cc3)cc(C(F)(F)F)c12 (stereo unspecified) | 960
44 | Cc1c(C(=O)Nc2ccccc2)cnc2nc(-c3ccncc3)nn12 | 594
45 | O=C(CC1CCN(C(=O)c2ccc3oc(C4CC4)nc3c2)CC1)NC1CCCC1 | 715
46 | Cc1cc(C)c(-c2noc(C)n2)c(NC(=O)C2CCCCC2)n1 | 723
47 | COc1ccc(-c2nc(N(C)Cc3ccco3)c3ccccc3n2)cc1 | 765
48 | CC1CCCN(CC2CCN(S(=O)(=O)c3ccc(C#N)cc3)CC2)C1 (stereo unspecified) | 644
49 | Nc1nc(-c2ccc(Cl)cc2)nn1C(=O)Cc1ccc(Cl)cc1 | 1170
50 | CCOC(=O)c1noc2ncnc(Nc3ccc(F)cc3F)c12 | 799
51 | CCC(=O)Nc1ccc(-n2cnc(C(=O)NCC3CCCO3)c2)nc1 (stereo unspecified) | 614
52 | CC12CCC(C(=O)Nc3ccc(Cl)cn3)(OC1=O)C2(C)C (stereo unspecified) | 890
53 | CCNC(=O)N1CCC(CCOc2cccnc2)CC1 | 579
54 | O=C(Cn1cnc(-c2cccs2)cc1=O)NCc1ccccc1OC(F)(F)F | 801
55 | CCNc1cc(N2CCC(CCC(=O)NCc3ccc(C)o3)CC2)ncn1 | 642

Next, values leading:

Row | RP-LC retention time [s] | Structure (SMILES)
56 | 875 | Cc1noc(C)c1C1CCCN1C(=O)c1cnn2c(C(F)(F)F)cc(-c3ccco3)nc12 (stereo unspecified)
57 | 825 | CCC(C)NC(=O)N1CCCN(C2=NS(=O)(=O)C(c3ccc(Cl)cc3)=C2C)CC1 (stereo unspecified)
58 | 749 | CN(c1nccn2c(=O)n(CC(=O)Nc3ccc(F)cc3)nc12)C1CCCCC1
59 | 978 | CCOc1ccc(S(=O)(=O)N2CCC(C(=O)NCc3csc(-c4ccccc4)n3)CC2)cc1
60 | 620 | O=C(c1ccccc1Cl)N1CCC(n2cnnc2C2CC2)CC1
61 | 695 | O=C(CN1CCN(c2ccc(Cl)cc2)C1=O)N1CCN(C(=O)c2ccco2)CC1
62 | 789 | Cn1ccc2cc(CCC(=O)N3CCCC3)ccc21
63 | 955 | CC(=O)c1ccc(N2CCN(C(=O)c3csc(-c4ccc(C)n4C)n3)CC2)cc1
64 | 817 | CCN1CCN(Cc2ccc(C(=O)Nc3ccc(C)c(Oc4ccc5c(c4)CC(=O)N5)c3)cc2C(F)(F)F)CC1
65 | 773 | O=S(=O)(Nc1nc2ccc(S(=O)(=O)N3CCCC3)cc2s1)c1ccc(F)cc1
66 | 711 | Cc1ccc(C)c(NC(=O)N2CCC(c3nc(C(=O)N(C)C)c(C)o3)CC2)c1
67 | 686 | CC1CN(c2ccc(Cl)cc2)c2nc3c(c(=O)n(CCN4CCOCC4)c(=O)n3C)n2C1 (stereo unspecified)
68 | 1040 | CC(=O)N1CCc2c([nH]c3ccccc23)C12C(=O)N(CCC(C)C)c1ccc(Br)cc12 (stereo unspecified)
69 | 939 | COc1ccc(-c2nc(C3CC(=O)N(c4ccc(C)cc4)C3)no2)c(OC)c1 (stereo unspecified)
70 | 805 | CC(C)CNC(=O)c1ccc2c(c1)Sc1ncccc1C(=O)N2C(C)C
71 | 1200 | Cc1ccc(C(=O)N2CCCC2c2nc(-c3cccc(Cl)c3)no2)cc1C (stereo unspecified)
72 | 650 | CCCC(=O)Nc1ccc(CCc2nc3ccc(C(=O)NC4CCCC4)cc3[nH]2)cc1
73 | 722 | Cc1ccc(C2NC(=O)N(CC(=O)Nc3cc(C)on3)C3=C2C(=O)OC3)cc1 (stereo unspecified)

Row | RP-LC retention time [s] | Structure (SMILES)
74 | 955 | Cc1ccc(N2CCC(NC(=O)Nc3cccc(Br)c3)C2=O)cc1 (stereo unspecified)
75 | 723 | CC(=O)N1CCc2cc(N3CC(C(=O)Nc4cccc(Cl)c4C)CC3=O)ccc21 (stereo unspecified)
76 | 907 | Cc1ccc(-n2c(=O)n(CC(=O)Nc3cccc(C)c3C)c3cccnc32)cc1
77 | 743 | CCc1cc(=O)n(CC(=O)Nc2ccc(F)cc2F)c(N2CCOCC2)n1
78 | 1210 | CCOC(=O)c1cccc(NC(=O)N2CCc3cn(C)c4cccc(c34)C2)c1
79 | 794 | CN(C)c1cccc(-c2nc(-c3ccc4c(c3)ncn4CCC(=O)N3CCCC3)no2)c1
80 | 825 | CN1C(=O)Cc2cc(C(=O)N3CCN(c4ccccc4Cl)CC3)ccc21
81 | 995 | CCc1ccc(NC(=O)N2CCc3nc(-c4ccc(OC)cc4)ncc3C2)cc1
82 | 730 | COCCN1C(=O)CC[C@]2(C(=O)NCc3ccccc3Cl)CCCC[C@@H]12
83 | 860 | Cc1cc(C)cc(C(=O)N2CCC(C(=O)NCc3csc(-c4cccs4)n3)CC2)c1
84 | 671 | NC(=O)C1CCN(C2=NC(=O)/C(=C\c3ccc(-c4ccc(F)cc4)o3)S2)CC1
85 | 609 | COc1ccc(C)cc1S(=O)(=O)N1CCN(Cc2ccc3c(c2)OCO3)CC1
86 | 894 | Cc1cc2nn(CC(=O)N3CCC(C)CC3)c(=O)n2c(-c2cccc(Cl)c2)n1
87 | 793 | CCN(CC)c1ncc2c(n1)CCC(C(=O)N1CCN(c3ccc(C)cc3)CC1)C2 (stereo unspecified)
88 | 737 | COc1ccc(NC(=O)c2cn3c(n2)CSCC3)cc1Cl
89 | 708 | O=C1NC2(CCN(C(=O)c3ccc4c(c3)OCO4)CC2)Nc2cc(Cl)ccc21
90 | 1180 | O=C(NCc1ccccc1Cl)c1c(O)c2cccc3c2n(c1=O)CC3
91 | 706 | Cc1cc(NC(=O)c2cccc(N3C(=O)CCC3=O)c2)n(-c2nc3ccc(F)cc3s2)n1
